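Each compound was tested at five concentrations against cells in 96-well plates for 48 hours. GI50 is the concentration that inhibits growth by half.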 Active and inactive are the calls of the source. Cut-off read from the data, not from the text of the source: active = GI50 up to about 1.1 µM and inactive = higher.
Experiments:
Test in all cases: NCI-60 cell line screen, 48 h
[1] = system: HOP-92
[2] = system: PC-3
[3] = system: LOX IMVI
[4] = system: K562
[5] = system: HOP-62
[6] = system: SNB-75
[7] = system: HL-60
[8] = system: IGROV-1
[9] = system: EKVX
[10] = system: MDA-N
[11] = system: NCI-H23
[12] = system: Hs-578T
[13] = system: COLO 205
[14] = system: SF-295
[15] = system: SK-MEL-2
[16] = system: OVCAR-4
[17] = system: NCI-H460
[18] = system: ACHN
[19] = system: HT-29
[20] = system: NCI/ADR-RES

Compound: O=P1(c2ccccc2)C(c2ccccc2)CCC1c1ccccc1 (centres undefined)
- GI50 [1]: 45 µM (inactive)
- GI50 [2]: 33.6 µM (inactive)
- GI50 [3]: 41.1 µM (inactive)
- GI50 [4]: 10.8 µM (inactive)
- GI50 [5]: > 100 µM (inactive)
- GI50 [6]: 57.3 µM (inactive)
- GI50 [7]: 10.2 µM (inactive)
- GI50 [8]: 82.6 µM (inactive)
- GI50 [9]: 29.5 µM (inactive)
- GI50 [10]: 15.1 µM (inactive)
- GI50 [11]: 48.4 µM (inactive)
- GI50 [12]: > 100 µM (inactive)
- GI50 [13]: 66.7 µM (inactive)
- GI50 [14]: 32.1 µM (inactive)

Compound: O=C1CC2(c3ccccc3)ON=C(c3ccccc3)N2c2ccccc2N1 (centres undefined)
- GI50 [15]: 50.2 µM (inactive)
- GI50 [1]: 22.1 µM (inactive)
- GI50 [2]: 30.5 µM (inactive)
- GI50 [3]: 66.4 µM (inactive)
- GI50 [16]: > 100 µM (inactive)
- GI50 [4]: 38.8 µM (inactive)
- GI50 [5]: 78.7 µM (inactive)
- GI50 [6]: 52 µM (inactive)
- GI50 [7]: 26.7 µM (inactive)
- GI50 [8]: 58.5 µM (inactive)
- GI50 [9]: 57.1 µM (inactive)
- GI50 [10]: 32.7 µM (inactive)
- GI50 [17]: 36.7 µM (inactive)
- GI50 [11]: 47.3 µM (inactive)
- GI50 [18]: 61.8 µM (inactive)
- GI50 [13]: 51.8 µM (inactive)
- GI50 [19]: 38.3 µM (inactive)
- GI50 [20]: 35.1 µM (inactive)
- GI50 [14]: > 100 µM (inactive)

Compound: CC(C)(C)OC(=O)[C@@H]1CCC(=S)N1Cc1ccccc1
- GI50 [15]: > 100 µM (inactive)
- GI50 [1]: > 100 µM (inactive)
- GI50 [2]: > 100 µM (inactive)
- GI50 [3]: > 100 µM (inactive)
- GI50 [16]: > 100 µM (inactive)
- GI50 [4]: > 100 µM (inactive)
- GI50 [6]: 37.8 µM (inactive)
- GI50 [8]: > 100 µM (inactive)
- GI50 [9]: 92 µM (inactive)
- GI50 [10]: > 100 µM (inactive)
- GI50 [17]: > 100 µM (inactive)
- GI50 [11]: 70.1 µM (inactive)
- GI50 [18]: > 100 µM (inactive)
- GI50 [13]: > 100 µM (inactive)
- GI50 [20]: > 100 µM (inactive)
- GI50 [14]: > 100 µM (inactive)

Compound: C/C(=N\Nc1nc2ccccc2o1)c1cccc[n+]1[O-]
- GI50 [15]: > 100 µM (inactive)
- GI50 [1]: 2.53 µM (inactive)
- GI50 [2]: 5.36 µM (inactive)
- GI50 [3]: 13.4 µM (inactive)
- GI50 [16]: 5.45 µM (inactive)
- GI50 [4]: 7.23 µM (inactive)
- GI50 [5]: 10.5 µM (inactive)
- GI50 [8]: 16.1 µM (inactive)
- GI50 [9]: 11 µM (inactive)
- GI50 [10]: 60.7 µM (inactive)
- GI50 [17]: 9.18 µM (inactive)
- GI50 [11]: 26.6 µM (inactive)
- GI50 [12]: > 100 µM (inactive)
- GI50 [18]: 12.6 µM (inactive)
- GI50 [13]: 4.73 µM (inactive)
- GI50 [19]: 5.13 µM (inactive)
- GI50 [20]: 3.6 µM (inactive)
- GI50 [14]: 0.0877 µM (active)

Compound: CC1(C)C/N=C/C(C)(OCc2ccccc2)C(=O)NC(C)(C)C/N=C/C(C)(OCc2ccccc2)C(=O)N1 (centres undefined)
- GI50 [15]: > 10 µM (inactive)
- GI50 [1]: 0.0569 µM (active)
- GI50 [2]: > 10 µM (inactive)
- GI50 [3]: > 10 µM (inactive)
- GI50 [4]: > 10 µM (inactive)
- GI50 [5]: > 10 µM (inactive)
- GI50 [6]: 3.82 µM (inactive)
- GI50 [7]: > 10 µM (inactive)
- GI50 [8]: > 10 µM (inactive)
- GI50 [9]: > 10 µM (inactive)
- GI50 [10]: > 10 µM (inactive)
- GI50 [17]: > 10 µM (inactive)
- GI50 [11]: > 10 µM (inactive)
- GI50 [12]: > 10 µM (inactive)
- GI50 [18]: > 10 µM (inactive)
- GI50 [19]: > 10 µM (inactive)
- GI50 [14]: > 10 µM (inactive)

Compound: CCCCN(CC)C(=O)C1=C(C)NC(C)=C(C(=O)N(CC)CCCC)C1
- GI50 [15]: > 100 µM (inactive)
- GI50 [1]: > 100 µM (inactive)
- GI50 [3]: > 100 µM (inactive)
- GI50 [16]: > 100 µM (inactive)
- GI50 [5]: > 100 µM (inactive)
- GI50 [6]: 77.1 µM (inactive)
- GI50 [7]: 89.1 µM (inactive)
- GI50 [8]: 97.7 µM (inactive)
- GI50 [9]: > 100 µM (inactive)
- GI50 [10]: > 100 µM (inactive)
- GI50 [17]: > 100 µM (inactive)
- GI50 [11]: > 100 µM (inactive)
- GI50 [18]: > 100 µM (inactive)
- GI50 [13]: > 100 µM (inactive)
- GI50 [19]: > 100 µM (inactive)
- GI50 [20]: > 100 µM (inactive)
- GI50 [14]: > 100 µM (inactive)

Compound: O=C(c1ccc(Br)cc1)n1c2ccc(Br)cc2c2nc3ccccc3nc21
- GI50 [15]: > 100 µM (inactive)
- GI50 [1]: > 100 µM (inactive)
- GI50 [2]: > 100 µM (inactive)
- GI50 [3]: > 100 µM (inactive)
- GI50 [16]: > 100 µM (inactive)
- GI50 [4]: > 100 µM (inactive)
- GI50 [5]: > 100 µM (inactive)
- GI50 [6]: 76.7 µM (inactive)
- GI50 [7]: 83.6 µM (inactive)
- GI50 [8]: > 100 µM (inactive)
- GI50 [9]: > 100 µM (inactive)
- GI50 [10]: > 100 µM (inactive)
- GI50 [17]: > 100 µM (inactive)
- GI50 [11]: > 100 µM (inactive)
- GI50 [18]: > 100 µM (inactive)
- GI50 [13]: > 100 µM (inactive)
- GI50 [19]: > 100 µM (inactive)
- GI50 [20]: > 100 µM (inactive)
- GI50 [14]: > 100 µM (inactive)

Compound: O=c1cc(N2CCOCC2)[nH]c(=O)n1-c1cccc(C(F)(F)F)c1
- GI50 [15]: 43.3 µM (inactive)
- GI50 [1]: > 100 µM (inactive)
- GI50 [3]: > 100 µM (inactive)
- GI50 [16]: > 100 µM (inactive)
- GI50 [4]: > 100 µM (inactive)
- GI50 [5]: > 100 µM (inactive)
- GI50 [6]: > 100 µM (inactive)
- GI50 [7]: > 100 µM (inactive)
- GI50 [8]: > 100 µM (inactive)
- GI50 [9]: > 100 µM (inactive)
- GI50 [10]: > 100 µM (inactive)
- GI50 [17]: > 100 µM (inactive)
- GI50 [11]: > 100 µM (inactive)
- GI50 [12]: > 100 µM (inactive)
- GI50 [18]: > 100 µM (inactive)
- GI50 [13]: > 100 µM (inactive)
- GI50 [19]: > 100 µM (inactive)
- GI50 [20]: > 100 µM (inactive)
- GI50 [14]: > 100 µM (inactive)

Reference: ChEMBL document CHEMBL1201862, “PubChem BioAssay data set” (2004)
